The values that follow come from patent US4988708A, “Analgesic and anti-inflammatory 4-OH quinoline carboxylic acid derivatives” (Roussel Uclaf, priority 1984, dated 1991).

SMILES strings stand for the structures.

The test system of the first series is chronic arthritis of adjuvant. Put plainly: Anti-inflammatory activity, chronic arthritis of adjuvant (preventative treatment). The settings on record: Rattus norvegicus, 408 h; male rats, oral, day 0 to day before kill on day 17; dose reducing increase in volume of hind paws by 50% (table, section A); read-out: DA50 (the source's name). It is filed as in vivo. As to the method: A. Anti-inflammatory activity chronic arthritis of adjuvant (preventative treatment)
(§1) The injection of adjuvant of "Freund" type into a hind paw causes in rats the rapid appearance of a primary inflammatory lesion in this paw and then after a latent period of 13 to 15 days, causes a secondary arthritis affecting in particular the other hind paw. The test was carried out on male rats aged from 42 to 50 days which received by intraplantar injection 0.1 ml of adjuvant of "Freund"type (suspension in vaseline oil of 6 mg per ml. of killed mycobacterium butyricum). The animals received the product studied orally from day 0 (day of the injection of the adjuvant) until the day before they were killed which occured on day 17. The arthritic control animals and normal control animals received only the vehicle. The assessment criteria of the activity of the substances studied were the increase in the volume of hind paws injected (primary and secondary inflammation) and not injected (secondary inflammation) in comparison with the average volume of paws corresponding to the normal controls. The DA50 was determined, that is to say, the dose which reduced the increase in volume of the hind paws of the treated animals in comparison to those of the control animals by 50% and the results are reported in the following Table.
C. Anti-inflammatory activity chronic arthritis of adjuvant (preventative treatment)
as §1, with “"Freund" type” for “"Freund"type”, “say” for “say,”, “50%.” for “50% and the results are reported in the following Table.”
Regarding `CCC(OC(=O)c1cc2ccccc2[nH]1)c1nc2c(C(F)(F)F)cccc2c(O)c1C(=O)Nc1nccs1` (stereo not shown) [Example 28, 1-[4-hydroxy-3-{[(2-aminothiazolyl)-carbonyl]-8-trifluoromethyl2-quinolinyl]-propyl]1H-indole-2-carboxylate], the ED50 came out at 2 mg/kg.
Still for that read-out and setting: next, `CCC(=O)OCC(OC(=O)CC)c1nc2c(C(F)(F)F)cccc2c(O)c1C(=O)Nc1nccs1` (stereo not shown) [Example 4, 2-[1,2-bis-(1-oxopropoxy)ethyl]-4-hydroxy-N-(2-thiazolyl)-8-trifluoromethyl-3-quinolinecarboxamide]: 1 mg/kg; `CCC(=O)OC(CC)c1nc2c(C(F)(F)F)cccc2c(O)c1C(=O)Nc1nccs1` (stereo not shown) [Example 12, 4-hydroxy-2-[1-(1-oxopropoxy)-propyl]-N-(2-thiazolyl)-8-(trifluoromethyl)-3-quinoline carboxamide]: 0.8 mg/kg; `CCCC(=O)OC(CC)c1nc2c(C(F)(F)F)cccc2c(O)c1C(=O)Nc1nccs1` (stereo not shown) [Example 17, 1-[4-hydroxy-3-[(2-thiazolylamino)-carbonyl]-8-trifluoromethyl)-2quinolinyl]-propyl butanoate]: 1.3 mg/kg.
Take `CCC(=O)OC(COC)c1nc2c(C(F)(F)F)cccc2c(O)c1C(=O)Nc1nccs1` (stereo not shown) [Example 5, 2-[2-methoxy-1-(1-oxopropoxy)-ethyl]-4-hydroxy-N-(2-thiazolyl)-8-trifluoromethyl-3-quinoline carboxamide]: the ED50 is 5 mg/kg.
Same read-out and setting: next, `CC(O)C(O)c1nc2c(C(F)(F)F)cccc2c(O)c1C(=O)Nc1nccs1` (stereo not shown) [Example 3, 2-(1,2-dihydroxypropyl)-4-hydroxy-N-(2-thiazolyl)-8-trifluoromethyl-3-quinoline carboxamide]: 3 mg/kg; `O=C(Nc1nccs1)c1c(C(O)CO)nc2c(C(F)(F)F)cccc2c1O` (stereo not shown) [Example 2, 2-(1,2-dihydroxyethyl)-4-hydroxy-N-(2-thiazolyl)-8-trifluoromethyl-3-quinoline carboxamide]: 0.7 mg/kg.
For the compound `CCC(OC(=O)CN)c1nc2c(C(F)(F)F)cccc2c(O)c1C(=O)Nc1nccs1` (stereo not shown) [Example 16, 1-[4-hydroxy-3-[(2-thiazolylamino)-carbonyl]-8-(trifluoromethyl)-2quinolinyl]-propyl amino acetate dichlorohydride], the ED50 came out at 1 mg/kg.
Still for that read-out and setting: next, `COCC(O)c1nc2c(C(F)(F)F)cccc2c(O)c1C(=O)Nc1nccs1` (stereo not shown) [Example 1, 4-hydroxy-2-(1-hydroxy-2-methoxy-ethyl)-N-(2-thiazolyl)-8-(trifluoromethyl)-3-quinoline carboxamide]: 2 mg/kg.

The series is the same for the next values; noted with them: Rattus norvegicus, 408 h; male rats, oral, day 0 to day before kill on day 17; dose reducing increase in volume of hind paws by 50% (text, section C); read-out: DA50 (the source's name).
Turning to `CCC(O)c1nc2c(C(F)(F)F)cccc2c(O)c1C(=O)Nc1nccs1` (single isomer, unassigned; isomer b) [Step A of Example 27 (B-isomer), 4-hydroxy-2-(1-hydroxypropyl)-N-(2-thiazolyl)-8-trifluoromethyl-3-quinoline carboxamide isomer B], the ED50 came to 0.5 mg/kg.

The same series, now with this note: male rats, oral, day 0 to day before kill on day 17; dose reducing increase in volume of hind paws by 50% (table, section A); 24480 min.
Take `CCCc1ncc(C(=O)OC(CC)c2nc3c(C(F)(F)F)cccc3c(O)c2C(=O)Nc2nccs2)s1` (stereo not shown) [Example 29]: the DA50 came to 2 mg/kg.

The test system of another series is stomachs. Briefly: Gastric ulceration effect. The settings on record: female rats, oral, seven hours; graphically determined; maximum ulceration index is 300. In kind it is in vivo. As to the method:
B. Gastric ulceration effect
The test was done on female rats weighing 120 to 150 g on a water diet for 24 hours at the time of the treatment divided into random groupd. The products were administered orally and seven hours later, the animals were killed and their stomachs opened along the great curvature, washed in an isotonic solution of sodium chloride and spread apart by wiping with a cotton pad soaked in the same solution. The degree of ulcerous lesions, in number and in size, was estimated on a scale from 0 to 3 by two observers unware of the treatments. The notation 1 indicated the presence of an obvious ulcer or of several punctiform ulcers.
To take in account also the percentage of rats having ulcers (degree of ulceration greater than 0.5, notation attributed to a hyperemia or to Petechiae often encountered in a control which had fasted) an ulceration index was calculated for each group according to the formula [formula]
The dose corresponding to an ulceration index of 100 or DU 100 was graphically determined (the maximum ulceration index is 300).
As to `CCC(=O)OC(CC)c1nc2c(C(F)(F)F)cccc2c(O)c1C(=O)Nc1nccs1` (stereo not shown) [Example 12, 4-hydroxy-2-[1-(1-oxopropoxy)-propyl]-N-(2-thiazolyl)-8-(trifluoromethyl)-3-quinoline carboxamide], the “DU 100 (dose corresponding to an ulceration index of 100)” value is “greater than 300 mg/kg”.
With `CCCC(=O)OC(CC)c1nc2c(C(F)(F)F)cccc2c(O)c1C(=O)Nc1nccs1` (stereo not shown) [Example 17, 1-[4-hydroxy-3-[(2-thiazolylamino)-carbonyl]-8-trifluoromethyl)-2quinolinyl]-propyl butanoate], the “DU 100 (dose corresponding to an ulceration index of 100)” value is recorded as “greater than 300 mg/kg”.
